Experimental data taken from ChEMBL document CHEMBL5223117, “Synthesis and biological evaluation of novel N, N'-diarylurea derivatives as potent antibacterial agents against MRSA” (Bioorg Med Chem Lett, 2022).
≈ marks a conversion by molar mass, not a printed value. Calls of active or inactive are those of the source. The rule behind the calls is not given here.

Assays:
Staphylococcus aureus [1] = experiment: Antibacterial activity against vancomycin intermediate and methicillin resistant Staphylococcus aureus ATCC 700698; assay type: functional
[2] = system: Staphylococcus epidermidis; experiment: Antibacterial activity against methicillin sensitive Staphylococcus epidermidis ATCC 12228; assay type: functional
Staphylococcus aureus [3] = experiment: Antibacterial activity against methicillin sensitive Staphylococcus aureus ATCC 33591; assay type: functional
Staphylococcus aureus [4] = experiment: Antibacterial activity against methicillin resistant Staphylococcus aureus ATCC 43300; assay type: functional
Staphylococcus aureus [5] = experiment: Antibacterial activity against methicillin sensitive Staphylococcus aureus 15; assay type: functional
Staphylococcus aureus [6] = experiment: Antibacterial activity against methicillin sensitive Staphylococcus aureus ATCC 29213; assay type: functional
[7] = system: Staphylococcus epidermidis; experiment: Antibacterial activity against methicillin sensitive Staphylococcus epidermidis 17-13; assay type: functional
Staphylococcus aureus [8] = experiment: Antibacterial activity against methicillin sensitive Staphylococcus aureus 20-12; assay type: functional
Staphylococcus aureus [9] = experiment: Antibacterial activity against vancomycin intermediate and methicillin resistant Staphylococcus aureus ATCC 700699; assay type: functional
[10] = Cytotoxicity against human HepG2 cells by SRB assay; assay type: toxicity, cell-based
Staphylococcus aureus [11] = experiment: Antibacterial activity against methicillin resistant Staphylococcus aureus 20-11; assay type: functional
[12] = system: Staphylococcus epidermidis; experiment: Antibacterial activity against methicillin resistant Staphylococcus epidermidis 19-1; assay type: functional
[13] = Cytotoxicity against human HeLa cells by SRB assay; assay type: toxicity, cell-based
[14] = system: Staphylococcus epidermidis; experiment: Antibacterial activity against methicillin resistant Staphylococcus epidermidis 19-2; assay type: functional
Staphylococcus aureus [15] = experiment: Antibacterial activity against methicillin resistant Staphylococcus aureus 18-2; assay type: functional
Enterococcus faecium [16] = experiment: Antibacterial activity against Vanomycin-resistant Enterococcus faecium ATCC 700221; assay type: functional
Enterococcus faecalis [17] = experiment: Antibacterial activity against Vanomycin-resistant Enterococcus faecalis ATCC 51575; assay type: functional
Staphylococcus aureus [18] = experiment: Antibacterial activity against methicillin resistant Staphylococcus aureus ATCC 33591; assay type: functional
Staphylococcus aureus [19] = experiment: Bactericidal activity against methicillin resistant Staphylococcus aureus 16-30; assay type: functional
Staphylococcus aureus [20] = experiment: Bactericidal activity against methicillin resistant Staphylococcus aureus ATCC 43300; assay type: functional
Staphylococcus aureus [21] = experiment: Bactericidal activity against methicillin resistant Staphylococcus aureus ATCC 33591; assay type: functional
Staphylococcus aureus [22] = experiment: Selectivity ratio of MBC for bactericidal activity against methicillin resistant Staphylococcus aureus 16-30 to MIC for antibacterial activity against methicillin resistant Staphylococcus aureus 16-30; assay type: functional
Enterococcus faecalis [23] = experiment: Antibacterial activity against Vanomycin-resistant Enterococcus faecalis ATCC 51299; assay type: functional
Staphylococcus aureus [24] = experiment: Selectivity ratio of MBC for bactericidal activity against methicillin resistant Staphylococcus aureus ATCC 43300 to MIC for antibacterial activity against methicillin resistant Staphylococcus aureus ATCC 43300; assay type: functional
Staphylococcus aureus [25] = experiment: Selectivity ratio of MBC for bactericidal activity against methicillin resistant Staphylococcus aureus ATCC 33591 to MIC for antibacterial activity against methicillin resistant Staphylococcus aureus ATCC 33591; assay type: functional
Enterococcus faecium [26] = experiment: Antibacterial activity against Vanomycin-resistant Enterococcus faecium ATCC 51559; assay type: functional
Enterococcus faecium [27] = experiment: Antibacterial activity against Vanomycin-resistant Enterococcus faecium 15-6; assay type: functional
Staphylococcus aureus [28] = experiment: Antibacterial activity against methicillin resistant Staphylococcus aureus 16-30; assay type: functional

Structure (SMILES) | MIC (Staphylococcus aureus [1]) | MIC [2] | MIC (Staphylococcus aureus [3]) | MIC (Staphylococcus aureus [4]) | MIC (Staphylococcus aureus [5]) | MIC (Staphylococcus aureus [6]) | MIC [7] | MIC (Staphylococcus aureus [8]) | MIC (Staphylococcus aureus [9]) | IC50 [10] | MIC (Staphylococcus aureus [11]) | MIC [12] | IC50 [13] | MIC [14] | MIC (Staphylococcus aureus [15]) | MIC (Enterococcus faecium [16]) | MIC (Enterococcus faecalis [17]) | MIC (Enterococcus faecalis [23]) | MIC (Enterococcus faecium [26]) | MIC (Enterococcus faecium [27]) | also measured
O=C(Nc1ccc(OC(F)(F)F)cc1)N1CCN(c2ccc(Cl)c(C(F)(F)F)c2)C1=O | inactive | inactive | inactive | inactive | inactive | inactive | inactive | inactive | inactive | 100 µM | inactive | inactive | 100 µM | inactive | inactive | – | – | – | – | – | –
O=C(Nc1ccc(Cl)c(C(F)(F)F)c1)Nc1ccc(Cl)c(C(F)(F)F)c1 | 1.2 µM (≈ 0.501 µg/mL) | 1.2 µM (≈ 0.501 µg/mL) | 1.2 µM (≈ 0.501 µg/mL) | 1.2 µM (≈ 0.501 µg/mL) | 1.2 µM (≈ 0.501 µg/mL) | 1.2 µM (≈ 0.501 µg/mL) | 1.2 µM (≈ 0.501 µg/mL) | 1.2 µM (≈ 0.501 µg/mL) | 1.2 µM (≈ 0.501 µg/mL) | 7.72 µM | 1.2 µM (≈ 0.501 µg/mL) | 1.2 µM (≈ 0.501 µg/mL) | 2.69 µM | 1.2 µM (≈ 0.501 µg/mL) | 1.2 µM (≈ 0.501 µg/mL) | 4.79 µM (≈ 2 µg/mL) | 4.79 µM (≈ 2 µg/mL) | 4.79 µM (≈ 2 µg/mL) | 4.79 µM (≈ 2 µg/mL) | 2.4 µM (≈ 1 µg/mL) | MIC (Staphylococcus aureus [18]): 1.2 µM (≈ 0.501 µg/mL); MBC (Staphylococcus aureus [19]): 9.59 µM (≈ 4 µg/mL); MBC (Staphylococcus aureus [20]): 9.59 µM (≈ 4 µg/mL); MBC (Staphylococcus aureus [21]): 4.79 µM (≈ 2 µg/mL); Ratio (Staphylococcus aureus [22]): 8; Ratio (Staphylococcus aureus [24]): 8; Ratio (Staphylococcus aureus [25]): 4; MIC (Staphylococcus aureus [28]): 1.2 µM (≈ 0.501 µg/mL)
O=C(Nc1ccc(Cl)c(C(F)(F)F)c1)Nc1cc(Cl)ccc1F | 1.36 µM (≈ 0.499 µg/mL) | 2.72 µM (≈ 0.999 µg/mL) | 2.72 µM (≈ 0.999 µg/mL) | 2.72 µM (≈ 0.999 µg/mL) | 1.36 µM (≈ 0.499 µg/mL) | 2.72 µM (≈ 0.999 µg/mL) | 2.72 µM (≈ 0.999 µg/mL) | 2.72 µM (≈ 0.999 µg/mL) | 1.36 µM (≈ 0.499 µg/mL) | – | 2.72 µM (≈ 0.999 µg/mL) | 2.72 µM (≈ 0.999 µg/mL) | – | 2.72 µM (≈ 0.999 µg/mL) | 1.36 µM (≈ 0.499 µg/mL) | 2.72 µM (≈ 0.999 µg/mL) | 5.45 µM (≈ 2 µg/mL) | 5.45 µM (≈ 2 µg/mL) | 2.72 µM (≈ 0.999 µg/mL) | 2.72 µM (≈ 0.999 µg/mL) | –
O=C(Nc1ccc(F)cc1)Nc1ccc(Cl)c(C(F)(F)F)c1 | 12 µM (≈ 4 µg/mL) | 6.01 µM (≈ 2 µg/mL) | 6.01 µM (≈ 2 µg/mL) | 12 µM (≈ 4 µg/mL) | 6.01 µM (≈ 2 µg/mL) | 12 µM (≈ 4 µg/mL) | 6.01 µM (≈ 2 µg/mL) | 12 µM (≈ 4 µg/mL) | 3.01 µM (≈ 1 µg/mL) | – | 12 µM (≈ 4 µg/mL) | 6.01 µM (≈ 2 µg/mL) | – | 6.01 µM (≈ 2 µg/mL) | 6.01 µM (≈ 2 µg/mL) | 48.1 µM (≈ 16 µg/mL) | 192 µM (≈ 64 µg/mL) | 192 µM (≈ 64 µg/mL) | 96.2 µM (≈ 32 µg/mL) | 48.1 µM (≈ 16 µg/mL) | –
CNC(=O)c1cc(Oc2ccc(NC(=O)Nc3ccc(Cl)c(C(F)(F)F)c3)cc2)ccn1 [SORAFENIB] | 17.2 µM (≈ 8 µg/mL) | 4.3 µM (≈ 2 µg/mL) | 8.61 µM (≈ 4 µg/mL) | 17.2 µM (≈ 8 µg/mL) | 4.3 µM (≈ 2 µg/mL) | 8.61 µM (≈ 4 µg/mL) | 8.61 µM (≈ 4 µg/mL) | 8.61 µM (≈ 4 µg/mL) | 4.3 µM (≈ 2 µg/mL) | – | 8.61 µM (≈ 4 µg/mL) | 4.3 µM (≈ 2 µg/mL) | 3.31 µM | 4.3 µM (≈ 2 µg/mL) | 17.2 µM (≈ 8 µg/mL) | 275 µM (≈ 128 µg/mL) | 275 µM (≈ 128 µg/mL) | 275 µM (≈ 128 µg/mL) | 275 µM (≈ 128 µg/mL) | 275 µM (≈ 128 µg/mL) | –
